Measurements published in US6613536B1, “Synthetic peptides and pharmaceutical compositions comprising them for the treatment of systemic lupus erythematosus” (Yeda Research and Development Co. Ltd., priority 1995, dated 2003).
Entries after “also recorded” stand apart in the source; their conditions may differ.

Tested on: BALB/c mice
Assay: Neonatal tolerization of BALB/c mice, then autoantibody titers after immunization
Format: in vivo, mouse
Conditions: BALB/c neonates, 100 μg i.p. twice; immunized 6-7 weeks later with peptide Ia or mAb 5G12
Procedure: In order to either prevent induction of experimental SLE or to cure mice afflicted with the disease, the following procedures were used: (i) Newborn mice were tolerized with a peptide of the invention (100 μg of the peptide in PBS, intraperitoneally at 24 and 72 hours after birth). Six weeks later, the mice were immunized with the pathogenic autoantibody, e.g. 5G12 (16/6 Id+) and examined for disease manifestations; (ii) A first group of adult mice was injected with various concentrations of the peptides before disease induction with the pathogenic autoantibody or pathogenic T cell line; another group was injected with the peptides to be tested for their therapeutic effect six weeks following immunization at the peak of the serological response; and a further group was treated at 4-6 months post-immunization after the establishment of the overt SLE disease. The number of injections with the peptides was determined based on their effect on the disease induction and progression. The effect of the peptide treatment on T cell proliferation, on the autoantibody production and on the disease manifestations was then evaluated.
In order to further elucidate the role of the peptides in SLE, peptide Ia was utilized for the induction of tolerance in BALB/c mice. Newborn mice were injected twice (at day 1 and 3) with either peptide Ia or a control peptide. […]

## TGYYMQWVKQSPEKSLEWIG [peptide Ia]
  anti-DNA and anti-NE autoantibody titers after neonatal tolerization: did not produce significant titers of antibodies to either DNA or nuclear extract antigens; also recorded: produced lower levels of anti-DNA and anti-NE antibodies
